Structures are written as SMILES.

The first assay has as its target T1, glucocorticoid receptor (GR) (Homo sapiens, UniProt P04150).
T1 construct: endogenous in cells; host or cells: HeLa (ATCC) cell lysate supernatant
T1 sequence (P04150 1-777): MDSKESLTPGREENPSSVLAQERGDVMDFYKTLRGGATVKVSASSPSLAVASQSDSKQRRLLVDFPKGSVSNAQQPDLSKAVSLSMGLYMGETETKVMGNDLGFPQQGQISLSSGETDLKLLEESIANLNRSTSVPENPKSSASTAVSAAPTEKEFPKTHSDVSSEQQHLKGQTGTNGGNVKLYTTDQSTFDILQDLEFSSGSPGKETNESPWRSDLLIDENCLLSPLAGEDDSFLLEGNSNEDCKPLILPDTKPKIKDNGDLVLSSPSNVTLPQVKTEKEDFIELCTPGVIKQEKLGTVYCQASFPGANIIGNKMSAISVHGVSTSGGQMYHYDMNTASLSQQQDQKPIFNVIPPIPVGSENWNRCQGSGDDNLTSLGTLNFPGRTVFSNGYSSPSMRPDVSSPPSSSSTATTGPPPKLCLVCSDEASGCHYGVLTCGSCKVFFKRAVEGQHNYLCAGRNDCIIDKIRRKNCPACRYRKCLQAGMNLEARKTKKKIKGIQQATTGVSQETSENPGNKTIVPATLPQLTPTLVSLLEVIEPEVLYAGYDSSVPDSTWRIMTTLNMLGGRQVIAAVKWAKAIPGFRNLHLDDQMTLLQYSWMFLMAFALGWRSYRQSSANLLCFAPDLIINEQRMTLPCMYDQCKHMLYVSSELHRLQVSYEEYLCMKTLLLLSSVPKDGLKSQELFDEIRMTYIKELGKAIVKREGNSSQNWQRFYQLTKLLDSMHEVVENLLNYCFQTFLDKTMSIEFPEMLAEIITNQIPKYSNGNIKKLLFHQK
The assay is described as follows: Ligand binding assay (GR BIND), 3H-dexamethasone displacement, HeLa cell lysate. Conditions: Table 1; HeLa cell lysate, 3H-DEX. The procedure: Binding Buffer: TEGM (10 mM Tris-HCl, 1 mM EDTA, 10% glycerol, 1 mM beta-mercaptoethanol, 10 mM Sodium Molybdate, pH 7.2)
50% HAP Slurry: Calbiochem Hydroxylapatite, Fast Flow, in 10 mM Tris, pH 8.0 and 1 mM EDTA.
Wash Buffer: 40 mM Tris, pH7.5, 100 mM KCl, 1 mM EDTA and 1 mM EGTA.
Dexmethasone-methyl-^3H, (DEX*); (Amersham cat# TRK645)
Dexamethasone (DEX) (Sigma, cat# D1756):
Phenol red-free Trypsin-EDTA is diluted in the same PBS 1:10. The cell layers are rinsed with 1× Trypsin, extra Trypsin is poured out, and the cell layers are incubated at 37° C. for ˜2 min. The flask is tapped and checked for signs of cell detachment. Once the cells begin to slide off the flask, the complete media is added. The cells are counted at this point, then diluted to the appropriate concentration and split into flasks or dishes for further culturing (Usually 1:3 to 1:6 dilution).
Preparation of Hela Cell Lysate
The cell pellet is washed twice with TEGM (10 mM Tris-HCl, 1 mM EDTA, 10% glycerol, 1 mM beta-mercaptoethanol, 10 mM Sodium Molybdate, pH 7.2). After the final wash, the cells are resuspended in TEGM at a concentration of 10^7 cells/mL. The cell suspension is snap frozen in liquid nitrogen or ethanol/dry ice bath and transferred to −80° C. freezer on dry ice. Before setting up the binding assay, the frozen samples are left on ice-water to just thaw (˜1 hr). Then the samples are centrifuged at 12,500 g to 20,000 g for 30 min at 4° C. The supernatant is used to set-up assay right away. If using 50 μL of supernatant, the test compound can be prepared in 50 μL of the TEGM buffer.
Procedure for Multiple Compound Screening
1×TEGM buffer is prepared, and the isotope-containing assay mixture is prepared in the following order: EtOH (2% final concentration in reaction), 3H-DEX (Amersham Biosciences) and 1×TEGM. [e.g. For 100 samples, 200 μL (100×2) of EtOH+4.25 μL of 1:10 ^3H-Dex stock+2300 μL (100×23) 1×TEGM]. The compound is serially diluted, e.g., if starting final conc. is 1 μM, and the compound is in 25 μL of solution, for duplicate samples, 75 μL of 4×1 μM solution is made and 3 μL of 100 μM is added to 72 μL of buffer, and 1:5 serial dilution.
25 μL of ^3H-DEX (6 nM) trace and 25 μL compound solution are first mixed together, followed by addition of 50 μL receptor solution. The reaction is gently mixed, spun briefly at about 200 rpm and incubated at 4° C. overnight. 100 μL of 50% HAP slurry is prepared and added to the incubated reaction which is then vortexed and incubated on ice for 5 to 10 minutes. The reaction mixture is vortexed twice more to resuspend HAP while incubating reaction. The samples in 96-well format are then washed in wash buffer using The FilterMate™ Universal Harvester plate washer (Packard). The washing process transfers HAP pellet containing ligand-bound expressed receptor to Unifilter-96 GF/B filter plate (Packard). The HAP pellet on the filter plate is incubated with 50 μL of MICROSCINT (Packard) scintillant for 30 minutes before being counted on the TopCount microscintillation counter (Packard). IC50s are calculated using DEX as a reference.
For `CC(O)(C(N)=O)c1ccccc1CC[C@]1(O)CCC2=Cc3c(cnn3-c3ccc(F)cc3)C[C@@]21C` (single isomer, unassigned) [Example 150], the Ki was 11 nM.

For `CC(C(N)=O)c1ccccc1CC[C@]1(O)CCC2=Cc3c(cnn3-c3ccc(F)cc3)C[C@@]21C` (single isomer, unassigned) [Example 196], affinity was put at a Ki of 1.8 nM.

Molecule `C[C@]12Cc3cnn(-c4ccc(F)cc4)c3C=C1CC[C@@]2(O)CCc1ccccc1C(F)C(N)=O` (single isomer, unassigned) [Example 198] displayed a Ki of 2.44 nM.

Consider `CCNC(=O)c1ccccc1CC[C@]1(O)CCC2=Cc3c(cnn3-c3ccc(F)cc3)C[C@@]21C` [Example 2, N-ethyl-2-{2-[(4αS,5R)-1-(4-fluorophenyl)-5-hydroxy-4α-methyl-1,4,4α,5,6,7-hexahydrocyclopenta[f]indazol-5-yl]ethyl}benzamide], for which the affinity, expressed as Ki, was 2.08 nM.

The molecule `C[C@]12Cc3cnn(-c4ccc(F)cc4)c3C=C1CC[C@@]2(O)CCc1ccccc1CNS(=O)(=O)C1CC1` [Example 5, N-(2-{2-[(4αS,5R)-1-(4-fluorophenyl)-5-hydroxy-4α-methyl-1,4,4α,5,6,7-hexahydrocyclopenta[f]indazol-5-yl]ethyl}benzyl)cyclopropanesulfonamide] returned a Ki of 0.44 nM.

For the molecule `C[C@]12Cc3cnn(-c4ccc(F)cc4)c3C=C1CC[C@@]2(O)CCc1ccccc1N1CCC1=O` [Example 11, 1-(2-{2-[(4αS,5R)-1-(4-fluorophenyl)-5-hydroxy-4α-methyl-1,4,4α,5,6,7-hexahydrocyclopenta[f]indazol-5-yl]ethyl}phenyl)azetidin-2-one], the Ki was found to be 2.37 nM.

`CC(=O)Nc1ccccc1CC[C@]1(O)CCC2=Cc3c(cnn3-c3ccc(F)cc3)C[C@@]21C` [Example 14, N-(2-{2-[(4αS,5R)-1-(4-fluorophenyl)-5-hydroxy-4α-methyl-1,4,4α,5,6,7-hexahydrocyclopenta[f]indazol-5-yl]ethyl}phenyl)acetamide]: the Ki worked out at 6.38 nM.

`C[C@]12Cc3cnn(-c4ccc(F)cc4)c3C=C1CC[C@@]2(O)CCc1ccccc1NS(=O)(=O)C1CC1` [Example 15, N-(2-{2-[(4αS,5R)-1-(4-fluorophenyl)-5-hydroxy-4α-methyl-1,4,4α,5,6,7-hexahydrocyclopenta[f]indazol-5-yl]ethyl}phenyl)cyclopropanesulfonamide]: the Ki was determined as 1.17 nM.

For `C[C@]12Cc3cnn(-c4ccc(F)cc4)c3C=C1CC[C@@]2(O)CCc1ccccc1S(C)(=O)=O` [Example 19, (4αS,5R)-1-(4-fluorophenyl)-4α-methyl-5-{2-[2-(methylsulfonyl)phenyl]ethyl}-1,4,4α,5,6,7-hexahydrocyclopenta[f]indazol-5-ol], the Ki is 1.13 nM.

Molecule `CNC(=O)Cc1ccccc1CC[C@]1(O)CCC2=Cc3c(cnn3-c3ccc(F)cc3)C[C@@]21C` [Example 23, 2-(2-{2-[(4αS,5R)-1-(4-fluorophenyl)-5-hydroxy-4α-methyl-1,4,4α,5,6,7-hexahydrocyclopenta[f]indazol-5-yl]ethyl}phenyl)-N-methylacetamide] registered a Ki of 5.09 nM.

In the case of `COC(=O)C1(NC(=O)c2ccccc2CC[C@]2(O)CCC3=Cc4c(cnn4-c4ccc(F)cc4)C[C@@]32C)CC1` [Example 26, methyl 1-[(2-{2-[(4αS,5R)-1-(4-fluorophenyl)-5-hydroxy-4α-methyl-1,4,4α,5,6,7-hexahydrocyclopenta[f]indazol-5-yl]ethyl}benzoyl)amino]cyclopropanecarboxylate], affinity was put at a Ki of 1.37 nM.

Turning to `CC1(NC(=O)c2ccccc2CC[C@]2(O)CCC3=Cc4c(cnn4-c4ccc(F)cc4)C[C@@]32C)CC1` [Example 28, 2-{2-[(4αS,5R)-1-(4-fluorophenyl)-5-hydroxy-4α-methyl-1,4,4α,5,6,7-hexahydrocyclopenta[f]indazol-5-yl]ethyl}-N-(1-methylcyclopropyl)benzamide], the affinity, expressed as Ki, was 3.55 nM.

`CC(C)CNC(=O)c1ccccc1CC[C@]1(O)CCC2=Cc3c(cnn3-c3ccc(F)cc3)C[C@@]21C` [Example 29, 2-{2-[(4αS,5R)-1-(4-fluorophenyl)-5-hydroxy-4α-methyl-1,4,4α,5,6,7-hexahydrocyclopenta[f]indazol-5-yl]ethyl}-N-isobutylbenzamide] returned a Ki of 1.14 nM.

`CCCNC(=O)c1ccccc1CC[C@]1(O)CCC2=Cc3c(cnn3-c3ccc(F)cc3)C[C@@]21C` [Example 30, 2-{2-[(4αS,5R)-1-(4-fluorophenyl)-5-hydroxy-4α-methyl-1,4,4α,5,6,7-hexahydrocyclopenta[f]indazol-5-yl]ethyl}-N-propylbenzamide] gave a Ki of 1.52 nM.

Take `CC(CNC(=O)c1ccccc1CC[C@]1(O)CCC2=Cc3c(cnn3-c3ccc(F)cc3)C[C@@]21C)C(F)(F)F` (stereo partly drawn) [Example 31, 2-{2-[(4αS,5R)-1-(4-fluorophenyl)-5-hydroxy-4α-methyl-1,4,4α,5,6,7-hexahydrocyclopenta[f]indazol-5-yl]ethyl}-N-(3,3,3-trifluoro-2-methylpropyl)benzamide]: the affinity corresponds to a Ki of 0.9 nM.

In turn, `C=C(C)CNC(=O)c1ccccc1CC[C@]1(O)CCC2=Cc3c(cnn3-c3ccc(F)cc3)C[C@@]21C` [Example 32, 2-{2-[(4αS,5R)-1-(4-fluorophenyl)-5-hydroxy-4α-methyl-1,4,4α,5,6,7-hexahydrocyclopenta[f]indazol-5-yl]ethyl}-N-(2-methylprop-2-en-1-yl)benzamide] registered a Ki of 0.49 nM.

In turn, `C=CCNC(=O)c1ccccc1CC[C@]1(O)CCC2=Cc3c(cnn3-c3ccc(F)cc3)C[C@@]21C` [Example 33, N-allyl-2-{2-[(4αS,5R)-1-(4-fluorophenyl)-5-hydroxy-4α-methyl-1,4,4α,5,6,7-hexahydrocyclopenta[f]indazol-5-yl]ethyl}benzamide] came in with a Ki of 1.13 nM.

On to `CC1(NC(=O)c2ccccc2CC[C@]2(O)CCC3=Cc4c(cnn4-c4ccccc4)C[C@@]32C)CC1` [Example 34, 2-{2-[(4αS,5R)-5-hydroxy-4α-methyl-1-phenyl-1,4,4α,5,6,7-hexahydrocyclopenta[f]indazol-5-yl]ethyl}-N-(1-methylcyclopropyl)benzamide], for which affinity was put at a Ki of 5.29 nM.

Still in this assay, the particulars now being: Table 2; prior-art comparison compounds.
Consider `C[C@]12Cc3cnn(-c4ccc(F)cc4)c3C=C1CC[C@@]2(O)CCc1ccccc1` [Example 2 WO 2004/075840 A2, reference compound], for which the affinity, expressed as Ki, was 5.24 nM.

As for `C[C@]12Cc3cnn(-c4ccc(F)cc4)c3C=C1CCC[C@@H]2[C@@H](O)Cc1ccccc1` [Example 22 WO 03/086294 A2, reference compound], the Ki is 1.27 nM.

The record behind these values is patent US8119681B2, “2-[1-phenyl-5-hydroxy or methoxy-4alpha-methyl-hexahydrocyclopenta [ƒ]indazole-5-YL]ethyl phenyl derivatives as glucocorticoid receptor ligands” (Merck Sharp & Dohme Corp., priority 2006, dated 2012).
